# Assay results from US20250099369A1, “TOPICAL DELIVERY COMPOSITIONS COMPRISING NON-STEROIDAL ANTI-INFLAMMATORY DRUGS” (Andros Pharmaceuticals Co., LTD., priority 2023, published 2025).
# Assay: physchem
# Format: physicochemical
# Settings: 25 °C, aqueous buffer, thermodynamic from solid, Diclofenac Solubility
# Method: In the aqueous solution containing 1% boric acid, add SPC (0%, 1%, 3%, 5%, 8%, 10%, 13%, 15%, 18%, 20%) and urea (0%, 5%, 10%, 20%, 30%, 40%, 50%) and stir until complete dissolution. A total of 70 sample solutions with different SPC and urea concentrations were obtained.
# An excess of diclofenac sodium was added to each set of sample solutions and stirred overnight at 25° C. The sample solution was centrifuged at 12,000 rpm for 5 minutes, and a portion of the supernatant was diluted with appropriate diluent and analyzed by HPLC, to determine the solubility of diclofenac sodium in aqueous solutions containing different concentrations of SPC and urea. The results are presented in Table1.
smiles,measurement,value
O=C(O)Cc1ccccc1Nc1c(Cl)cccc1Cl [diclofenac sodium],solubility,19.7 mg/mL
